According to US20250269072A1, “PROCESSES FOR PREPARING RADIOLABELLED CONJUGATES” (CENTENARY INSTITUTE OF CANCER MEDICINE AND CELL BIOLOGY, priority 2021, published 2025):
Values joined by “and” are separate entries in the source; they are usually repeats but may differ in a detail not shown here. Equal entries are not always repeated.

Legend:
[1] = Human radiation dosimetry estimated from rat biodistribution (OLINDA/EXM); format: in vivo, human (standard adult male); conditions: from rat data
Experimental: For the voiding bladder model it was assumed that patients would void 1 hour following administration.

[2] = tested on: squamous cell carcinoma lymph node metastases; assay: Histological correlation (TUNEL) with ^68Ga-CDI uptake; format: in vivo, human; conditions: subject 3, right axillary and right cervical nodal metastases
From the text: In one subject, who proceeded to surgical excision of the tumor deposits 1 day after the ^68Ga-CDI PET scan, histological correlation of the tumor deposits were undertaken using haematoxylin and eosin staining and TUNEL staining to specifically identify dead and dying cells. Representative samples of the formalin fixed surgical specimens (following completion of all clinical analysis and excess to that required for archival purposes) from the right axillary and right cervical nodal masses were selected and provided by the reporting clinical pathologist. The tissues were fixed, rehydrated with ethanol and xylene and embedded in paraffin. A series of 4 μm thick sections were cut and stained with Haematoxylin and Eosin. Apoptotic cells were stained using the TUNEL assay kit HRP-DAB (Abcam, Cat #206386, Cambridge, MA, USA) according to manufacturer's protocol. Briefly, 4 μm sections of paraffin embedded tumor were deparaffinized in xylene and rehydrated in decreasing concentrations of ethanol. Tumor sections were permeabilized with Proteinase K for 20 min at room temperature. The endogenous peroxidase activity was quenched with 3% H2O2 for 5 min. Apoptotic cells were labelled with biotinylated Terminal deoxynucleotidyl Transferase (TdT) at 37° C. in humidified chamber for 2 h followed by a 30 min incubation with streptavidin-HRP conjugate. […]

Question: What does the source list for O=C(O)CNC(=O)[C@H](CSCC(=O)Nc1ccc([As](O)O)cc1)NC(=O)CC[C@H](NC(=O)CCC1C(=O)[O][68Ga]2[O]C(=O)CN3CCN(CCN1CC3)CC(=O)[O]2)C(=O)O (stereo partly shown) [^68Ga-NODAGA-GSAO]?
Answer: Alpha dose ([1]; Adrenals): 0.00E000 mSv/MBq; Beta dose ([1]; Adrenals): 2.13E−03 mSv/MBq; ED Cont. ([1]; Adrenals): 2.01E−05 mSv/MBq; Total dose ([1]; Adrenals): 4.02E−03 mSv/MBq; Alpha dose ([1]; Brain): 0.00E000 mSv/MBq; Beta dose ([1]; Brain): 8.15E−04 mSv/MBq; ED Cont. ([1]; Brain): 6.94E−06 mSv/MBq; Total dose ([1]; Brain): 1.39E−03 mSv/MBq; Alpha dose ([1]; Breasts): 0.00E000 mSv/MBq; Beta dose ([1]; Breasts): 2.13E−03 mSv/MBq; ED Cont. ([1]; Breasts): 1.51E−04 mSv/MBq; Total dose ([1]; Breasts): 3.02E−03 mSv/MBq; Alpha dose ([1]; Gallbladder Wall): 0.00E000 mSv/MBq; Beta dose ([1]; Gallbladder Wall): 2.13E−03 mSv/MBq; ED Cont. ([1]; Gallbladder Wall): 0.00E000 mSv/MBq; Total dose ([1]; Gallbladder Wall): 4.28E−03 mSv/MBq; Alpha dose ([1]; Heart Wall): 0.00E000 mSv/MBq; Beta dose ([1]; Heart Wall): 3.09E−03 mSv/MBq; ED Cont. ([1]; Heart Wall): 0.00E000 mSv/MBq; Photon dose ([1]; Heart Wall): 1.55E−03 mSv/MBq; Total dose ([1]; Heart Wall): 4.65E−03 mSv/MBq; Alpha dose ([1]; Kidneys): 0.00E000 mSv/MBq; Beta dose ([1]; Kidneys): 2.27E−02 mSv/MBq; ED Cont. ([1]; Kidneys): 1.31E−04 mSv/MBq; Photon dose ([1]; Kidneys): 3.56E−03 mSv/MBq; Total dose ([1]; Kidneys): 2.62E−02 mSv/MBq; Alpha dose ([1]; LLI Wall): 0.00E000 mSv/MBq; Beta dose ([1]; LLI Wall): 2.13E−03 mSv/MBq; ED Cont. ([1]; LLI Wall): 8.67E−04 mSv/MBq; Total dose ([1]; LLI Wall): 7.23E−03 mSv/MBq; Alpha dose ([1]; Liver): 0.00E000 mSv/MBq; Beta dose ([1]; Liver): 4.76E−03 mSv/MBq; ED Cont. ([1]; Liver): 3.40E−04 mSv/MBq; Photon dose ([1]; Liver): 2.04E−03 mSv/MBq; Total dose ([1]; Liver): 6.80E−03 mSv/MBq; Alpha dose ([1]; Lungs): 0.00E000 mSv/MBq; Beta dose ([1]; Lungs): 5.42E−03 mSv/MBq; ED Cont. ([1]; Lungs): 8.16E−04 mSv/MBq; Total dose ([1]; Lungs): 6.80E−03 mSv/MBq; Alpha dose ([1]; Muscle): 0.00E000 mSv/MBq; ED Cont. ([1]; Muscle): 2.09E−05 mSv/MBq; Total dose ([1]; Muscle): 4.18E−03 mSv/MBq; Alpha dose ([1]; Osteogenic Cells): 0.00E000 mSv/MBq; Beta dose ([1]; Osteogenic Cells): 3.31E−03 mSv/MBq; ED Cont. ([1]; Osteogenic Cells): 4.98E−05 mSv/MBq; Total dose ([1]; Osteogenic Cells): 4.98E−03 mSv/MBq; Alpha dose ([1]; Ovaries): 0.00E000 mSv/MBq; Beta dose ([1]; Ovaries): 2.13E−03 mSv/MBq; ED Cont. ([1]; Ovaries): 1.40E−03 mSv/MBq; Total dose ([1]; Ovaries): 7.02E−03 mSv/MBq; Alpha dose ([1]; Pancreas): 0.00E000 mSv/MBq; Beta dose ([1]; Pancreas): 3.87E−03 mSv/MBq; ED Cont. ([1]; Pancreas): 2.95E−05 mSv/MBq; Total dose ([1]; Pancreas): 5.90E−03 mSv/MBq; Alpha dose ([1]; Red Marrow): 0.00E000 mSv/MBq; Beta dose ([1]; Red Marrow): 1.49E−03 mSv/MBq; ED Cont. ([1]; Red Marrow): 4.05E−04 mSv/MBq; Total dose ([1]; Red Marrow): 3.38E−03 mSv/MBq; Alpha dose ([1]; Skin): 0.00E000 mSv/MBq; Beta dose ([1]; Skin): 2.13E−03 mSv/MBq; ED Cont. ([1]; Skin): 3.19E−05 mSv/MBq; Total dose ([1]; Skin): 3.19E−03 mSv/MBq; Alpha dose ([1]; Small Intestine): 0.00E000 mSv/MBq; Beta dose ([1]; Small Intestine): 5.18E−03 mSv/MBq; ED Cont. ([1]; Small Intestine): 4.10E−05 mSv/MBq; Photon dose ([1]; Small Intestine): 3.03E−03 mSv/MBq; Total dose ([1]; Small Intestine): 8.21E−03 mSv/MBq; Alpha dose ([1]; Spleen): 0.00E000 mSv/MBq; Beta dose ([1]; Spleen): 4.05E−03 mSv/MBq; ED Cont. ([1]; Spleen): 2.95E−05 mSv/MBq; Total dose ([1]; Spleen): 5.91E−03 mSv/MBq; Alpha dose ([1]; Stomach Wall): 0.00E000 mSv/MBq; Beta dose ([1]; Stomach Wall): 2.61E−03 mSv/MBq; ED Cont. ([1]; Stomach Wall): 5.06E−04 mSv/MBq; Photon dose ([1]; Stomach Wall): 1.61E−03 mSv/MBq; Total dose ([1]; Stomach Wall): 4.22E−03 mSv/MBq; Alpha dose ([1]; Testes): 0.00E000 mSv/MBq; Beta dose ([1]; Testes): 2.21E−03 mSv/MBq; ED Cont. ([1]; Testes): 0.00E000 mSv/MBq; Total dose ([1]; Testes): 5.69E−03 mSv/MBq; Alpha dose ([1]; Thymus): 0.00E000 mSv/MBq; Beta dose ([1]; Thymus): 4.48E−03 mSv/MBq; ED Cont. ([1]; Thymus): 2.92E−05 mSv/MBq; Total dose ([1]; Thymus): 5.84E−03 mSv/MBq; Alpha dose ([1]; Thyroid): 0.00E000 mSv/MBq; Beta dose ([1]; Thyroid): 2.13E−03 mSv/MBq; ED Cont. ([1]; Thyroid): 1.64E−04 mSv/MBq; Total dose ([1]; Thyroid): 3.28E−03 mSv/MBq; Alpha dose ([1]; Total Body): 0.00E000 mSv/MBq; Beta dose ([1]; Total Body): 2.68E−03 mSv/MBq; ED Cont. ([1]; Total Body): 0.00E000 mSv/MBq; Total dose ([1]; Total Body): 4.61E−03 mSv/MBq; Alpha dose ([1]; ULI Wall): 0.00E000 mSv/MBq; Beta dose ([1]; ULI Wall): 2.53E−03 mSv/MBq; ED Cont. ([1]; ULI Wall): 2.58E−05 mSv/MBq; Photon dose ([1]; ULI Wall): 2.63E−03 mSv/MBq; Total dose ([1]; ULI Wall): 5.18E−03 mSv/MBq; Alpha dose ([1]; Urinary Bladder Wall): 0.00E000 mSv/MBq; Beta dose ([1]; Urinary Bladder Wall): 2.84E−01 mSv/MBq; ED Cont. ([1]; Urinary Bladder Wall): 1.62E−02 mSv/MBq; Total dose ([1]; Urinary Bladder Wall): 3.24E−01 mSv/MBq; Alpha dose ([1]; Uterus): 0.00E000 mSv/MBq; Beta dose ([1]; Uterus): 2.13E−03 mSv/MBq; ED Cont. ([1]; Uterus): 5.77E−05 mSv/MBq; Total dose ([1]; Uterus): 1.15E−02 mSv/MBq; dose to urinary bladder wall (dose limiting organ) [1]: 0.32 mSv/MBq; whole body effective dose [1]: 2.13E-02 mSv/MBq and 0.021 mSv/MBq; whole body effective dose ([1]; injected activity 150 MBq): 3.2 mSv; TUNEL positive cells versus intensity of uptake [2]: correlated
